Laboratory results published in ChEMBL document CHEMBL3507680, “University of Dundee, Gates Library screen for HepG2 cell viability”.

test: Human HepG2 cell viability assay in 384 well format; assay type: toxicity, cell-based; parameters: dose 125 nL, time 70.5 hour; concentration not given beside the values; settings: HepG2 cells, read-out: Inhibition

Compound	cytotoxicity at 70.5 h [%]
COc1ccccc1C(NC(=O)NC1CC1)c1noc(C)n1 (centres undefined)	-9
COc1ccccc1C(NC(=O)C1CCCC1)c1noc(C)n1 (centres undefined)	1.95
COc1ccccc1C(NC(=O)C1CCC1)c1noc(C)n1 (centres undefined)	-5.9
CCC(Nc1ccc(Oc2cccc(C#N)c2)cc1)C(N)=O (centres undefined)	-12.3
Cn1nnc2cc(C(=O)NS(=O)(=O)c3ccc(F)cc3)ccc21	-3.7
OC[C@@H](O)CN(CCC(F)(F)F)c1ncc(Cl)cn1	-4.91
O=S(=O)(Nc1cn[nH]c1)c1ccc(F)c(Br)c1	-4.68
Cc1cnc(C(C)(C)NC(=O)NCc2ccc(C#N)cc2F)s1	-5.64
COc1ncccc1NC(=O)NC(C)(C)c1ncc(C)s1	16.5
Cn1cnc2cc(C(=O)NS(=O)(=O)c3ccc(F)cc3)ccc21	-5.36
Cc1cnc(C(C)(C)NC(=O)NCc2ccon2)s1	-9.99
N#Cc1cccc(OCCCN2CCN(C(=O)c3ccoc3)CC2)c1	-10
OC(CN(Cc1ccccc1)Cc1cccnc1)c1ccco1 (centres undefined)	14.4
CCc1nn(C)c(CC)c1CNC(=O)Nc1cccc([S+](C)[O-])c1 (centres undefined)	14.6
CCc1nsc(NC2CC(=O)N(C3CC3)C2)n1 (centres undefined)	-0.811
COCC(C)(CCO)NC(=O)Nc1c(F)cccc1Br (centres undefined)	1.51
CCCc1noc(CS(=O)(=O)CC(=O)NC(C)CCC)n1 (centres undefined)	-5.83
COCCCNC(=O)Nc1cccc2ncccc12	30.8
CNS(=O)(=O)c1ccc(CNC(=O)c2cc(C)no2)cc1	-11.9
O=C(CCS(=O)(=O)C1CCCC1)NCCc1ccc2c(c1)OCCO2	-2.36
CCc1ncc(C(=O)N2CCn3c(CC)nnc3C2)s1	-13.9
CCc1nnc2n1CCN(C(=O)c1cnc(C3CC3)s1)C2	-9.47
CS(=O)(=O)CCC(=O)N(Cc1c(F)cccc1F)C1CCCC1	21

Compound	cytotoxicity at 70.5 h [%]
CNS(=O)(=O)c1ccc(CNC(=O)c2cc(-c3ccccn3)no2)cc1	-8.91
CCC(CC)(CC(=O)OC)NC(=O)Nc1nnc(-c2ccccn2)s1	9.93
Cc1cccc(C2CCCCN2C(=O)CCCS(C)(=O)=O)c1C (centres undefined)	-9.93
CNS(=O)(=O)CC(=O)N(Cc1c(F)cccc1F)C1CCCC1	1.88
CC(C)NC(=O)CN(C)C1CCN(c2cnc3ccccc3n2)CC1	20.5
Cc1nsc(NC2CC(=O)N(C(C)(C)C)C2)n1 (centres undefined)	11.5
O=C(NCCCF)Nc1ccc2nc(N3CCOCC3)oc2c1	12.5
CC(C)N(Cc1ccc(C#N)cc1)C(=O)Nc1ccccn1	-7.3
CN(CC1CCCCC1)C(=O)c1cn(C)nc1-c1cccnc1	3.52
CCN(C)C(C(=O)Nc1ccc2c(c1)CCC(=O)N2)c1ccccc1 (centres undefined)	-15.5
O=C1CCCN1CC1CCCCN1C(=O)Nc1cccnc1 (centres undefined)	-1.1
CC/C=C(/C)C(=O)NCc1ccnc(OC2CCOCC2)c1	-9.32
O=S(=O)(CC1CCOCC1)NCc1ncc(-c2ccccc2)o1	-5.19
CCC(CC(=O)Nc1ccc2c(c1)CC(=O)N2)c1ccccc1 (centres undefined)	-6.03
FC(F)(F)c1n[nH]c2c1CN(Cc1cn3ccccc3n1)CC2	-6.32
Cc1nc(NC(=O)OC(C)(C)C)sc1C#N	-6.61
O=C(Nc1ccc(F)cc1)N(CCC(F)(F)F)C[C@H](O)CO	-0.146
CCN(CC)S(=O)(=O)N(C)Cc1ccncc1	-8.49
CC(CCN(C)C)NC(=O)N1CCSC(C)(C)C1 (centres undefined)	-1.34
COc1cccc(NC(=O)N(CCC(F)(F)F)C[C@H](O)CO)c1	-4.42
CN(CC1CCCC1)C(=O)c1cn(C)nc1-c1cccnc1	-3.43
O=C(Nc1ccc(F)cc1F)N(CCC(F)(F)F)C[C@H](O)CO	-12.9
CCOc1ccccc1CNC(=O)NCC(c1cnn(C)c1)N(C)C (centres undefined)	-9.13

Compound	cytotoxicity at 70.5 h [%]
COCCc1noc(CN(C)c2cc(C)ncn2)n1	17.1
c1cncc(OCCNC2Cc3ccccc3C2)c1	-14.1
CN(CC1CCOCC1)C(=O)NCCCN1CCCCC1	-3.15
Nc1nccnc1C(=O)N1CCN(CCOc2ccccc2)CC1	20.7
COc1ccccc1COCC(O)CN(C)c1ccc(C)cc1C (centres undefined)	15.1
CC(=O)NCCC(=O)NC1(c2ccc(Cl)c(Cl)c2)CC1	-3.79
Cn1c(SCC(=O)NC(C)(C#N)C2CC2)nc2ccccc21 (centres undefined)	0.675
Cn1cc(C2CCCN2C(=O)Cn2ccc3ccc(Cl)cc32)cn1 (centres undefined)	12.2
Cc1cc(NC(=O)N(C)C2CCN(c3ccccc3F)C2=O)n(C)n1 (centres undefined)	-0.35
Cc1cnn(CCNCCCOc2ccc3c(c2)OCO3)c1	-0.972
CN(CC(=O)NC(C)(C#N)C1CC1)Cc1nnc(C2CC2)n1C (centres undefined)	1.7
CC(C)c1nc(C2CCCN2c2ncc(C(N)=O)cc2Cl)no1 (centres undefined)	12.4
CN(CC(=O)NC(C)(C#N)C1CC1)Cc1nc2ccccc2n1C (centres undefined)	4.49
COCCNC(=O)NCCCOC1CCCc2ccccc21 (centres undefined)	1.91
Cc1nc(Cn2cc(I)cc(C)c2=O)oc1C	2.15
O=C(CCc1ccsc1)N1CCC(C(=O)O)(c2ccccc2)CC1	-0.12
CN1CCN(C(=O)CCc2cccnc2)c2ccc(F)cc21	1.2
FC(F)Oc1ccc(NCc2nc(C3CC3)no2)c(OC(F)F)c1	1.35
Cc1cccc(NC(=O)CCNCc2c(C)nn(C)c2N(C)C)n1	2.77
COc1ccc(COCC(O)CN(C)c2ccc(C)cc2C)cc1 (centres undefined)	0.463
COc1ccc2c(ccn2CC(=O)N2CCCC2Cn2cccn2)c1 (centres undefined)	3.03
Cc1cnn(CCNCCCOc2ccc(C#N)cc2)c1	3.37
c1cnn(CCNCCCOc2ccc3c(c2)OCO3)c1	0.993

Compound	cytotoxicity at 70.5 h [%]
CC1CN(Cc2ccccc2)CCCN1CCNS(C)(=O)=O (centres undefined)	-0.345
Cc1cnn(CCCNC2Cc3ccccc3C2)c1	9.93
CCC(C)NC(=O)CS(=O)(=O)Cc1cc(C)ccc1C (centres undefined)	-11.2
CCc1noc(CS(=O)(=O)CC(=O)N2c3ccccc3CC2C)n1 (centres undefined)	-12.6
CN(C)C(CNCc1nc(-c2ccsc2)no1)c1ccsc1 (centres undefined)	4.31
CN(C)c1ccc(NC(=O)N2CCCCCC2c2ccncc2)cn1 (centres undefined)	-10.6
O=C(CNC(=O)c1cnc2ccccc2c1O)NCCn1ccnc1	-6.04
CCS(=O)(=O)CC(=O)NC(C)c1ccc(F)cc1F (centres undefined)	-6.32
Cc1n[nH]cc1CNC1(c2ccc(Br)cc2)CC1	-0.84
Cc1n[nH]c(C2CN(Cc3csc(C4CCCCC4)n3)CCO2)n1 (centres undefined)	0.0665
CSCC(C)(O)CNc1ccccn1 (centres undefined)	-1.72
Cc1cc(C)c(C(=O)NCCNc2ncnc3ccccc23)c(=O)[nH]1	-2.04
COc1ccccc1NC(=O)NCc1cn[nH]c1	-7.77
CNS(=O)(=O)c1csc(C(=O)N(C)Cc2sccc2C)c1	-6.58
CSCC(C)(O)CNc1ncccc1C(F)(F)F (centres undefined)	1.25
CN(C)C(=O)CN1CCO[C@H]2CN(Cc3cccc(F)c3)C[C@H]21	-8.07
Cc1oncc1C(=O)N1CC[C@H]2[C@H]1CCN2S(C)(=O)=O	-1.36
Cc1noc([C@@]23CCO[C@@H]2CCN(S(=O)(=O)c2cccnc2)C3)n1	-6.17
O=C(NCCc1cccc(F)c1)c1nc2c(s1)CCCN2C(=O)C1CC1	-5.89
Cc1ccc(N2CCc3ncnc(C4CC4)c3CC2)nn1	21.3
c1cnc(N2CCO[C@H]3CN(CC4CCCC4)C[C@H]32)cn1	2.36
COCCN1C(=O)CC(c2cccnc2)C12CCN(C)CC2 (centres undefined)	0.172
Cc1csc([C@@H]2C[C@@H]3CCN(Cc4cc(C)on4)C[C@H]3O2)n1	-6.2

Compound	cytotoxicity at 70.5 h [%]
Cc1noc([C@]23COC[C@H]2CN(C(=O)Cc2ccsc2)C3)n1	-2.9
O=C(NC[C@H]1C[C@@H]2CN(C(=O)c3ccco3)C[C@@H]2O1)c1ccsc1	-3.16
COCC1c2nnn(C)c2CCN1C(=O)Cc1ccccn1 (centres undefined)	-3.79
Cn1cc(C(=O)N[C@@H]2CN(Cc3ccoc3)[C@@H]3CCCO[C@@H]32)cn1	-5.02
Cc1cccc(CN2C[C@@H]3OCCN(CC(=O)N(C)C)[C@@H]3C2)c1	-8.16
CC(C)CN1C(=O)CC[C@]12CC[C@@H](NC(=O)NCc1cccnc1)CC2	-3.62
CCC(=O)Nc1ccc2c(c1)C1(CCOCC1)CN2CCOC	13.5
Cc1ccc(N2CC[C@@H]3[C@@H]2CCN3C(=O)Cc2ccsc2)nn1	-4.23
Cc1ccc(N2CC[C@@H]3[C@@H]2CCN3C(=O)Cc2cccs2)nn1	-3.66
CN(C)CCNC(=O)c1nc2c(s1)CCCN2C(=O)C1CC1	-2.21
O=C(c1ccncc1)N1CCOC2(CCCN(c3nncs3)C2)C1 (centres undefined)	-0.0919
c1ccc(CN2Cc3nccn3CC(Cn3cccn3)C2)nc1 (centres undefined)	-3.5
CC(=O)N1CCO[C@@H]2CN(Cc3cccc(Cl)c3)C[C@@H]2C1	-2.75
Cn1cc(CN2C[C@@H]3COC[C@]3(COCC3CC3)C2)cn1	-5.3
c1cnc(N2CCO[C@H]3CN(CC4CCC4)C[C@H]32)cn1	-4.76
Cn1ccnc1C(=O)N[C@@H]1CN(Cc2ccc(F)cc2)[C@@H]2CCCO[C@@H]21	-3.63
COc1ncccc1C(=O)N1CCC2(CC1)CC(OC)CO2 (centres undefined)	-6.77
CC(=O)N1CCCC2(C1)CN(c1nncs1)CCO2 (centres undefined)	-4.62
c1cncc(N2CCO[C@H]3CN(CC4CCOC4)C[C@H]32)c1 (some centres undefined)	-3.42
c1cnc(N2CCO[C@H]3CN(CC4CCOCC4)C[C@H]32)nc1	-3.7
CN1CC[C@@H]2OC[C@H](C(=O)N(C)Cc3ccccn3)C[C@@H]2C1	2.32
c1cc(CN2CCN3C[C@H](Oc4cncnc4)C[C@H]3C2)ccn1	-5.1
